The results in this text go back to ChEMBL document CHEMBL3232895, “N-aryl-2,6-dimethylbenzamides, a new generation of tocainide analogues as blockers of skeletal muscle voltage-gated sodium channels” (J Med Chem, 2014).

For data set [1], the target named is T1, serum albumin (Rattus norvegicus, UniProt P02770). Description: Binding affinity to rat serum albumin at 30 uM by HPLC analysis. The class given is ADME. To be noted: read-out: PB (converted).
Data set [2] has as its target T2, serum albumin (Homo sapiens, UniProt P02768). Description: Binding affinity to human serum albumin at 30 uM by HPLC analysis. The class given is ADME. As to conditions: read-out: PB (converted).
Data set [3] addresses T2, serum albumin. Description: Binding affinity to human serum albumin. To be noted: read-out: PB (converted). The data set is classed as ADME.
In data set [4] the target is T1, serum albumin. Description: Binding affinity to rat serum albumin assessed as fraction unbound at 30 uM by HPLC analysis. The class given is ADME.
Data set [5] has as its target T2, serum albumin. Description: Binding affinity to human serum albumin assessed as fraction unbound at 30 uM by HPLC analysis. The data set is classed as ADME.
Data set [6] is described as follows: Ratio of binding affinity to rat serum albumin assessed as fraction unbound to binding affinity to human serum albumin assessed as fraction unbound. The class given is ADME. As to conditions: isolated protein.
Data set [7] concerns Pelophylax lessonae. Description: Ratio of IC50 for tonic block of voltage-gated sodium channel in Rana esculenta ventral branch of semitendinosus muscle to IC50 for use-dependent block of voltage-gated sodium channel in Rana esculenta ventral branch of semitendinosus muscle at 10 Hz frequency. The data set is classed as tissue-based.
Data set [8] is described as follows: Inhibition of voltage-gated sodium channel in Rana esculenta ventral branch of semitendinosus muscle at -140 mV of holding potential by Hille-Campbell vaseline gap voltage-clamp recording. The class given is tissue-based, Pelophylax lessonae.
For data set [9], the system named is Pelophylax lessonae. Description: Steady state inactivation of voltage-gated sodium channel in Rana esculenta ventral branch of semitendinosus muscle at 100 uM assessed as change in potential at which 50% of sodium channel were inactivated measured at 1000 ms prepulse by Hille-Campbell vaseline gap voltage-clamp recording. The data set is classed as tissue-based.

A short description of data set [10]: Inhibition of voltage-gated sodium channel in Rana esculenta ventral branch of semitendinosus muscle at -70 mV of holding potential by Hille-Campbell vaseline gap voltage-clamp recording. The class given is tissue-based, Pelophylax lessonae.
Data set [11] can be described thus: Inhibition of voltage-gated sodium channel in Rana esculenta ventral branch of semitendinosus muscle assessed as use-dependent block at 2 Hz stimulation frequency by Hille-Campbell vaseline gap voltage-clamp recording. The class given is tissue-based, Pelophylax lessonae.
Data set [12] has as its system Pelophylax lessonae. Description: Inhibition of voltage-gated sodium channel in Rana esculenta ventral branch of semitendinosus muscle assessed as tonic block by measuring reduction of maximal peak sodium transient at 300 uM at 10 Hz stimulation frequency by Hille-Campbell vaseline gap voltage-clamp recording. The class given is tissue-based.
The nature of data set [13]: Inhibition of voltage-gated sodium channel in Rana esculenta ventral branch of semitendinosus muscle assessed as tonic block at 10 Hz stimulation frequency by measuring reduction of maximal peak sodium transient by Hille-Campbell vaseline gap voltage-clamp recording. The data set is classed as tissue-based, Pelophylax lessonae.
Data set [14] can be described thus: Inhibition of voltage-gated sodium channel in Rana esculenta ventral branch of semitendinosus muscle assessed as tonic block by measuring reduction of maximal peak sodium transient at holding potential -100 mV by Hille-Campbell vaseline gap voltage-clamp recording. The data set is classed as tissue-based, Pelophylax lessonae.
Data set [15] has as its system Pelophylax lessonae. Description: Ratio of IC50 for tonic block of voltage-gated sodium channel in Rana esculenta ventral branch of semitendinosus muscle to IC50 for use-dependent block of voltage-gated sodium channel in Rana esculenta ventral branch of semitendinosus muscle at 2 Hz frequency. The data set is classed as tissue-based.
The nature of data set [16]: Inhibition of voltage-gated sodium channel in Rana esculenta ventral branch of semitendinosus muscle assessed as use-dependent block at 10 Hz frequency by Hille-Campbell vaseline gap voltage-clamp recording. The class given is tissue-based, Pelophylax lessonae.
For data set [17], the system named is Pelophylax lessonae. Description: Inhibition of voltage-gated sodium channel in Rana esculenta ventral branch of semitendinosus muscle assessed as tonic block by measuring reduction of maximal peak sodium transient at 500 uM at 10 Hz stimulation frequency by Hille-Campbell vaseline gap voltage-clamp recording. The data set is classed as tissue-based.

T1 sequence (P02770 whole entry): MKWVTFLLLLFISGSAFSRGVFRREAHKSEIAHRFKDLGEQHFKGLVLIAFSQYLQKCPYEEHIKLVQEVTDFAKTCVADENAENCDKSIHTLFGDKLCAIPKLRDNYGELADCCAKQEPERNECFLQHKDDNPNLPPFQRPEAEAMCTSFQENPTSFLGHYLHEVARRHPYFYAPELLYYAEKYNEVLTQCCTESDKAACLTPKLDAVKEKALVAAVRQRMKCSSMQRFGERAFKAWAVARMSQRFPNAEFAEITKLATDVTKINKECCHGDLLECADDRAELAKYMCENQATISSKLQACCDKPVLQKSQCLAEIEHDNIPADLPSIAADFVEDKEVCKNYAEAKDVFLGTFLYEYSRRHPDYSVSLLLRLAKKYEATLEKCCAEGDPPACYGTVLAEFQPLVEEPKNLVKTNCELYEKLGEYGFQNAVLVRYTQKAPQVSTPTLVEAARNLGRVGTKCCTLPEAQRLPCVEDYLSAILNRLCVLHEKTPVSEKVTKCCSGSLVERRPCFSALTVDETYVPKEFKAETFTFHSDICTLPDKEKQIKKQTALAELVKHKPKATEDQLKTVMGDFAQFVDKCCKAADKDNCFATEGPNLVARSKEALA
T2 sequence (P02768 whole entry): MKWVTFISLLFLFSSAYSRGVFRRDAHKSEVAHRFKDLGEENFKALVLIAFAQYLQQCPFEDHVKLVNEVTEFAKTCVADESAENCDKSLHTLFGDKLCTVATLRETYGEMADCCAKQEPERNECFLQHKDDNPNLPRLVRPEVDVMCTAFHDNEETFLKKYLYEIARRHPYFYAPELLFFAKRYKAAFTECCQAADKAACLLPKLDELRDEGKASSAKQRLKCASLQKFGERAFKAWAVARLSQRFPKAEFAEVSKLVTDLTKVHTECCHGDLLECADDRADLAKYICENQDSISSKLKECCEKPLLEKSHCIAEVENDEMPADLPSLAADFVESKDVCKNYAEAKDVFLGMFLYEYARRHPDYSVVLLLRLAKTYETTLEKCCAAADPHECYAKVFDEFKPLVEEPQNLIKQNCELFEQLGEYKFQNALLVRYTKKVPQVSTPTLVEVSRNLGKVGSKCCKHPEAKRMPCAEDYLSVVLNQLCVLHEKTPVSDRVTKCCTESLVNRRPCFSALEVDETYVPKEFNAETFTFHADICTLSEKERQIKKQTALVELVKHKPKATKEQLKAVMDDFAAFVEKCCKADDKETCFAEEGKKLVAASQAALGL

As to `O=C1CN=C(c2ccccc2Cl)c2cc([N+](=O)[O-])ccc2N1` [CLONAZEPAM], the fraction unbound at 30 µM on serum albumin [1] was 0.117; on serum albumin [2], 0.143. Also, on serum albumin [3], the fraction unbound is 0.14.

As to `Cc1cccc(C)c1NC(=O)CC(C)NCc1cccc2ccccc12` (racemic), the fraction unbound at 30 µM was 0.04 at serum albumin [4], 0.04 at serum albumin [1], 0.033 on serum albumin [5] and 0.033 at serum albumin [2].

As for `Cc1cccc(C)c1NC(=O)C1CCN(Cc2ccccc2)C1` (centres undefined), the fraction unbound at 30 µM on serum albumin [4] was 0.0644; at serum albumin [1], 0.064; on serum albumin [5] it was 0.0284; on serum albumin [2] it was 0.029. The Ratio in data set [6] turned out to be 2.27.

`Cc1cccc(C)c1NC(=O)CC(C)N` (racemic): the Ratio IC50 in the data set with Pelophylax lessonae [7] is 8.6; in the data set on Pelophylax lessonae [15], 5.2. In addition, the 50% inhibitory concentration (IC50) in data set [8] was 603 µM; in data set [10], 54 µM; in data set [11], 81.2 µM; in data set [14], 420 µM; in data set [16] it was 48.8 µM. Further, the Activity with Pelophylax lessonae [9] amounted to 4.8 mV. Further, in the data set on Pelophylax lessonae [12], the inhibition turned out to be 35.6%. Besides, the pIC50 in data set [13] turned out to be 4.31.

As to `Cc1cccc(C)c1NC(=O)CC(C)NCc1ccccc1` (racemic), the fraction unbound at 30 µM at serum albumin [4] is 0.122; at serum albumin [1], 0.121; at serum albumin [5] it was 0.0474; on serum albumin [2], 0.047.

For the compound `Cc1cccc(C)c1NC(=O)C(C)N` (racemic) [TOCAINIDE], the Ratio IC50 in the data set with Pelophylax lessonae [7] worked out at 2.1; with Pelophylax lessonae [15], 1.5. Besides, the IC50 in data set [8] worked out at 985 µM; in data set [10], 254 µM; in data set [11], 350 µM; in data set [14], 523 µM; in [16] it was 248 µM. Besides, the fraction unbound at 30 µM at serum albumin [4] is 0.64; on serum albumin [1], 0.64; at serum albumin [5], 0.746; at serum albumin [2] it was 0.746. For the same compound, in [6], the Ratio turned out to be 0.86. Further, in the data set with Pelophylax lessonae [17], the inhibition came to 42.6%.
